# Laboratory results as given in PubChem BioAssay (NCI).
#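 Method: 48-hour compound exposure of cells in 96-well plates, five concentrations, linear interpolation of endpoints. The concentration for full growth arrest is given as TGI.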
# Experiments:
# Test in all cases: NCI-60 cell line screen, 48 h
# [1] = tested on: 786-0 renal
# [2] = tested on: A498 renal
# [3] = tested on: A549 NSCLC
# [4] = tested on: ACHN renal
# [5] = tested on: CAKI-1 renal
# [6] = tested on: CCRF-CEM leukemia
# [7] = tested on: COLO 205 colon
# [8] = tested on: DU-145 prostate
# [9] = tested on: EKVX NSCLC
# [10] = tested on: HCC-2998 colon
# [11] = tested on: HCT-15 colon
# [12] = tested on: HL-60(TB) leukemia
# [13] = tested on: HOP-62 NSCLC
# [14] = tested on: HOP-92 NSCLC
# [15] = tested on: HS 578T breast
# [16] = tested on: HT29 colon
# [17] = tested on: IGROV1 ovarian
# [18] = tested on: K-562 leukemia
# [19] = tested on: KM12 colon
# [20] = tested on: LOX IMVI melanoma
# [21] = tested on: M14 melanoma
# [22] = tested on: MALME-3M melanoma
# [23] = tested on: MCF7 breast
# [24] = tested on: MDA-MB-231 breast
# [25] = tested on: MDA-MB-435
# [26] = tested on: MDA-N
# [27] = tested on: MOLT-4 leukemia
# [28] = tested on: NCI-H226 lung
# [29] = tested on: NCI-H23 lung
# [30] = tested on: NCI-H460 lung
# [31] = tested on: NCI-H522 lung
# [32] = tested on: NCI/ADR-RES ovarian
# [33] = tested on: OVCAR-3 ovarian
# [34] = tested on: OVCAR-4 ovarian
# [35] = tested on: OVCAR-5 ovarian
# [36] = tested on: OVCAR-8 ovarian
# [37] = tested on: PC-3 prostate
# [38] = tested on: RPMI-8226 leukemia
# [39] = tested on: RXF 393 renal
# [40] = tested on: SF-268 CNS
# [41] = tested on: SF-295 CNS
# [42] = tested on: SF-539 CNS
# [43] = tested on: SK-MEL-2 melanoma
# [44] = tested on: SK-MEL-28 melanoma
# [45] = tested on: SK-MEL-5 melanoma
# [46] = tested on: SK-OV-3 ovarian
# [47] = tested on: SNB-19 CNS
# [48] = tested on: SNB-75 CNS
# [49] = tested on: SR leukemia
# [50] = tested on: SW-620 colon
# [51] = tested on: T-47D breast
# [52] = tested on: TK-10 renal
# [53] = tested on: U251 CNS
# [54] = tested on: UACC-257 melanoma
# [55] = tested on: UACC-62 melanoma
# [56] = tested on: UO-31 renal
# [57] = tested on: BT-549 breast
# [58] = tested on: HCT-116 colon
# [59] = tested on: SN12C renal
structure (smiles),measurement,setting,value
COC(=O)C(CCc1ccccc1I)C1=CCC2(CC1)OCCO2 (configuration not stated),TGI,[1],> 100 µM
same,TGI,[2],> 100 µM
same,TGI,[3],> 100 µM
same,TGI,[4],> 100 µM
same,TGI,[5],> 100 µM
same,TGI,[6],33.7 µM
same,TGI,[7],> 100 µM
same,TGI,[8],> 100 µM
same,TGI,[9],> 100 µM
same,TGI,[10],> 100 µM
same,TGI,[11],> 100 µM
same,TGI,[12],17.4 µM
same,TGI,[13],> 100 µM
same,TGI,[14],> 100 µM
same,TGI,[15],> 100 µM
same,TGI,[16],> 100 µM
same,TGI,[17],> 100 µM
same,TGI,[18],> 100 µM
same,TGI,[19],> 100 µM
same,TGI,[20],> 100 µM
same,TGI,[21],> 100 µM
same,TGI,[22],> 100 µM
same,TGI,[23],> 100 µM
same,TGI,[24],> 100 µM
same,TGI,[25],87.7 µM
same,TGI,[26],94.3 µM
same,TGI,[27],> 100 µM
same,TGI,[28],> 100 µM
same,TGI,[29],> 100 µM
same,TGI,[30],> 100 µM
same,TGI,[31],68.8 µM
same,TGI,[32],> 100 µM
same,TGI,[33],> 100 µM
same,TGI,[34],> 100 µM
same,TGI,[35],95.8 µM
same,TGI,[36],> 100 µM
same,TGI,[37],> 100 µM
same,TGI,[38],> 100 µM
same,TGI,[39],67.2 µM
same,TGI,[40],> 100 µM
same,TGI,[41],> 100 µM
same,TGI,[42],> 100 µM
same,TGI,[43],> 100 µM
same,TGI,[44],> 100 µM
same,TGI,[45],40 µM
same,TGI,[46],> 100 µM
same,TGI,[47],> 100 µM
same,TGI,[48],> 100 µM
same,TGI,[49],> 100 µM
same,TGI,[50],> 100 µM
same,TGI,[51],71.3 µM
same,TGI,[52],> 100 µM
same,TGI,[53],> 100 µM
same,TGI,[54],> 100 µM
same,TGI,[55],> 100 µM
same,TGI,[56],76.2 µM
Cc1ccc(S(=O)(=O)/N=C(\NN)Nc2ccc(Cl)cc2)cc1,TGI,[1],> 100 µM
same,TGI,[2],> 100 µM
same,TGI,[3],> 100 µM
same,TGI,[4],> 100 µM
same,TGI,[57],> 100 µM
same,TGI,[5],> 100 µM
same,TGI,[6],> 100 µM
same,TGI,[7],> 100 µM
same,TGI,[8],> 100 µM
same,TGI,[9],> 100 µM
same,TGI,[58],> 100 µM
same,TGI,[11],> 100 µM
same,TGI,[12],> 100 µM
same,TGI,[13],> 100 µM
same,TGI,[14],> 100 µM
same,TGI,[16],> 100 µM
same,TGI,[17],> 100 µM
same,TGI,[18],> 100 µM
same,TGI,[19],> 100 µM
same,TGI,[20],> 100 µM
same,TGI,[21],> 100 µM
same,TGI,[23],> 100 µM
same,TGI,[24],> 100 µM
same,TGI,[26],> 100 µM
same,TGI,[27],> 100 µM
same,TGI,[28],> 100 µM
same,TGI,[29],> 100 µM
same,TGI,[30],> 100 µM
same,TGI,[32],> 100 µM
same,TGI,[33],> 100 µM
same,TGI,[34],> 100 µM
same,TGI,[35],> 100 µM
same,TGI,[36],> 100 µM
same,TGI,[37],> 100 µM
same,TGI,[38],> 100 µM
same,TGI,[39],> 100 µM
same,TGI,[41],> 100 µM
same,TGI,[42],> 100 µM
same,TGI,[43],> 100 µM
same,TGI,[44],> 100 µM
same,TGI,[45],> 100 µM
same,TGI,[46],> 100 µM
same,TGI,[59],> 100 µM
same,TGI,[47],> 100 µM
same,TGI,[48],> 100 µM
same,TGI,[49],> 100 µM
same,TGI,[50],> 100 µM
same,TGI,[51],> 100 µM
same,TGI,[52],> 100 µM
same,TGI,[53],> 100 µM
same,TGI,[54],> 100 µM
same,TGI,[55],> 100 µM
same,TGI,[56],> 100 µM
Cc1ccsc1/C=N/Nc1cc(C)c2cccc(C)c2n1,TGI,[1],> 100 µM
same,TGI,[2],> 100 µM
same,TGI,[3],> 100 µM
same,TGI,[4],> 100 µM
same,TGI,[57],> 100 µM
same,TGI,[5],> 100 µM
same,TGI,[7],> 100 µM
same,TGI,[8],> 100 µM
same,TGI,[9],> 100 µM
same,TGI,[10],> 100 µM
same,TGI,[12],71.2 µM
same,TGI,[13],> 100 µM
same,TGI,[14],> 100 µM
same,TGI,[15],> 100 µM
same,TGI,[16],> 100 µM
same,TGI,[17],> 100 µM
same,TGI,[19],> 100 µM
same,TGI,[21],> 100 µM
same,TGI,[23],> 100 µM
same,TGI,[25],> 100 µM
same,TGI,[26],> 100 µM
same,TGI,[28],> 100 µM
same,TGI,[29],> 100 µM
same,TGI,[32],> 100 µM
same,TGI,[33],> 100 µM
same,TGI,[34],> 100 µM
same,TGI,[35],> 100 µM
same,TGI,[36],> 100 µM
same,TGI,[37],> 100 µM
same,TGI,[40],> 100 µM
same,TGI,[41],> 100 µM
same,TGI,[43],> 100 µM
same,TGI,[44],> 100 µM
same,TGI,[46],> 100 µM
same,TGI,[59],> 100 µM
same,TGI,[47],> 100 µM
same,TGI,[48],> 100 µM
same,TGI,[50],> 100 µM
same,TGI,[51],> 100 µM
same,TGI,[52],> 100 µM
same,TGI,[53],> 100 µM
same,TGI,[54],> 100 µM
same,TGI,[55],> 100 µM
COc1ccc(O[C@H](COCc2ccccc2)C[C@@H]2COC(C)(C)O2)cc1,TGI,[1],> 100 µM
same,TGI,[2],> 100 µM
same,TGI,[3],> 100 µM
same,TGI,[4],> 100 µM
same,TGI,[57],> 100 µM
same,TGI,[5],> 100 µM
same,TGI,[6],> 100 µM
same,TGI,[7],> 100 µM
same,TGI,[8],> 100 µM
same,TGI,[9],> 100 µM
same,TGI,[10],> 100 µM
same,TGI,[58],> 100 µM
same,TGI,[11],> 100 µM
same,TGI,[13],> 100 µM
same,TGI,[16],> 100 µM
same,TGI,[17],> 100 µM
same,TGI,[18],> 100 µM
same,TGI,[19],> 100 µM
same,TGI,[20],> 100 µM
same,TGI,[21],> 100 µM
same,TGI,[22],> 100 µM
same,TGI,[23],> 100 µM
same,TGI,[24],> 100 µM
same,TGI,[25],> 100 µM
same,TGI,[26],> 100 µM
same,TGI,[27],> 100 µM
same,TGI,[28],> 100 µM
same,TGI,[29],> 100 µM
same,TGI,[30],> 100 µM
same,TGI,[31],> 100 µM
same,TGI,[32],> 100 µM
same,TGI,[33],> 100 µM
same,TGI,[34],> 100 µM
same,TGI,[35],> 100 µM
same,TGI,[36],> 100 µM
same,TGI,[37],> 100 µM
same,TGI,[38],> 100 µM
same,TGI,[39],> 100 µM
same,TGI,[40],> 100 µM
same,TGI,[41],> 100 µM
same,TGI,[42],> 100 µM
same,TGI,[43],> 100 µM
same,TGI,[44],> 100 µM
same,TGI,[45],> 100 µM
same,TGI,[46],> 100 µM
same,TGI,[59],> 100 µM
same,TGI,[47],> 100 µM
same,TGI,[48],> 100 µM
same,TGI,[49],> 100 µM
same,TGI,[50],> 100 µM
same,TGI,[52],> 100 µM
same,TGI,[53],> 100 µM
same,TGI,[54],> 100 µM
same,TGI,[55],> 100 µM
same,TGI,[56],> 100 µM
